Assay results published in the kinase profiling compilation of Christmann-Franck et al. (2016).

How the values were obtained:
Assay in all cases: KINOMEscan competition binding
AKT2 (human) = AKT2 (human) (UniProt P31751); conditions: compound 10.0 µM
AURKB (human) = AURKB (human) (UniProt Q96GD4); conditions: compound 10.0 µM
BLK (human) = BLK (human) (UniProt P51451); conditions: compound 10.0 µM
BMPR1B (human) = BMPR1B (human) (UniProt O00238); conditions: compound 10.0 µM
BMX (human) = BMX (human) (UniProt P51813); conditions: compound 10.0 µM
CDC42BPA (human) = CDC42BPA (human) (UniProt Q5VT25); conditions: compound 10.0 µM
CDK9 (human) = CDK9 (human) (UniProt P50750); conditions: compound 10.0 µM
CSNK1A1L (human) = CSNK1A1L (human) (UniProt Q8N752); conditions: compound 10.0 µM
CSNK1D (human) = CSNK1D (human) (UniProt P48730); conditions: compound 10.0 µM
CSNK1E (human) = CSNK1E (human) (UniProt P49674); conditions: compound 10.0 µM
DMPK (human) = DMPK (human) (UniProt Q09013); conditions: compound 10.0 µM
EGFR (human) = EGFR (human) (UniProt P00533); conditions: compound 10.0 µM
[1] = test system: EGFR (human), P00533 [G719S]; conditions: compound 10.0 µM
EPHA1 (human) = EPHA1 (human) (UniProt P21709); conditions: compound 10.0 µM
EPHA4 (human) = EPHA4 (human) (UniProt P54764); conditions: compound 10.0 µM
EPHB3 (human) = EPHB3 (human) (UniProt P54753); conditions: compound 10.0 µM
[2] = test system: FLT3 (human), P36888 [D835Y]; conditions: compound 10.0 µM
IRAK3 (human) = IRAK3 (human) (UniProt Q9Y616); conditions: compound 10.0 µM
Sequence of IRAK3 (human) (Q9Y616 whole entry, looked up): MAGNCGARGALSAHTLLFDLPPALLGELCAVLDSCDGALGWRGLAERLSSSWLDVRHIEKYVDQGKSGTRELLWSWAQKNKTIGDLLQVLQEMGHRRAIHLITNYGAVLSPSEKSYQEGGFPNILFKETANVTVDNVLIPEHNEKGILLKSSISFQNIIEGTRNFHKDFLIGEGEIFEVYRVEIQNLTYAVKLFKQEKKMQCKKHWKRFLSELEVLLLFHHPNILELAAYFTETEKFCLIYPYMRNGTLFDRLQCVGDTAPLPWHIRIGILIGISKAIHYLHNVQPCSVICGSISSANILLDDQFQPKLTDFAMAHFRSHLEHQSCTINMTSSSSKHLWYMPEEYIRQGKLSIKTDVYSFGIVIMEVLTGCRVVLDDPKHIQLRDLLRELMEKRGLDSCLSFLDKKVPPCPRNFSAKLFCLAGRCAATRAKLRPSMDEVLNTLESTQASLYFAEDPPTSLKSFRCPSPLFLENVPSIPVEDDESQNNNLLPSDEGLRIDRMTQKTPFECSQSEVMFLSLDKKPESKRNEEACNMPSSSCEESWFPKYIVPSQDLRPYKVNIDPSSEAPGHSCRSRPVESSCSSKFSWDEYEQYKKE

[3] = target: JAK1 JH2 pseudokinase (human) (UniProt P23458); conditions: compound 10.0 µM
[4] = test system: KIT (human), P10721 [D816V]; conditions: compound 10.0 µM
MAK (human) = MAK (human) (UniProt P20794); conditions: compound 10.0 µM
MAP2K3 (human) = MAP2K3 (human) (UniProt P46734); conditions: compound 10.0 µM
Sequence of MAP2K3 (human) (P46734 whole entry, looked up): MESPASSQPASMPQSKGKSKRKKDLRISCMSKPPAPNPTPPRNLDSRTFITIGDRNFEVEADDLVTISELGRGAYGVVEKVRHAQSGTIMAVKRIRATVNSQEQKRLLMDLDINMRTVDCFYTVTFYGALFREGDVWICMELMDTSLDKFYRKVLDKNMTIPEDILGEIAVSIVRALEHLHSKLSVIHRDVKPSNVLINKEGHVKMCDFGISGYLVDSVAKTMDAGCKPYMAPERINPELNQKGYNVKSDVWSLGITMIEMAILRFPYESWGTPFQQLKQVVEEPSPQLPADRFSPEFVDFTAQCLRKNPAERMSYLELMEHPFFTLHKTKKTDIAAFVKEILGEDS

MAP2K4 (human) = MAP2K4 (human) (UniProt P45985); conditions: compound 10.0 µM
MAP2K5 (human) = MAP2K5 (human) (UniProt Q13163); conditions: compound 10.0 µM
Sequence of MAP2K5 (human) (Q13163 whole entry, looked up): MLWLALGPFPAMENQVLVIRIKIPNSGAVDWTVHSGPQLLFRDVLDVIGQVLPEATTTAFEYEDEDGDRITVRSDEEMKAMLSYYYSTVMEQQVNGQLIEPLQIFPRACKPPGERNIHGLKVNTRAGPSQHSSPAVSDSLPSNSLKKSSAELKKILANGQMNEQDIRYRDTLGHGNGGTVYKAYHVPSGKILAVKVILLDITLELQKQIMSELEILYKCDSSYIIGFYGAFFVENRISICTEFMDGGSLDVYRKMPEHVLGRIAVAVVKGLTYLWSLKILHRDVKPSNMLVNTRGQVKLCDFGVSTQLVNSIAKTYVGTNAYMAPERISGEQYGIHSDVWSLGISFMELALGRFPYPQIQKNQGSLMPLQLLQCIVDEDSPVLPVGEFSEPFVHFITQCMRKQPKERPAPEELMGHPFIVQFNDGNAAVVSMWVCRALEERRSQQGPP

MAP3K2 (human) = MAP3K2 (human) (UniProt Q9Y2U5); conditions: compound 10.0 µM
MAPK15 (human) = MAPK15 (human) (UniProt Q8TD08); conditions: compound 10.0 µM
Sequence of MAPK15 (human) (Q8TD08 whole entry, looked up): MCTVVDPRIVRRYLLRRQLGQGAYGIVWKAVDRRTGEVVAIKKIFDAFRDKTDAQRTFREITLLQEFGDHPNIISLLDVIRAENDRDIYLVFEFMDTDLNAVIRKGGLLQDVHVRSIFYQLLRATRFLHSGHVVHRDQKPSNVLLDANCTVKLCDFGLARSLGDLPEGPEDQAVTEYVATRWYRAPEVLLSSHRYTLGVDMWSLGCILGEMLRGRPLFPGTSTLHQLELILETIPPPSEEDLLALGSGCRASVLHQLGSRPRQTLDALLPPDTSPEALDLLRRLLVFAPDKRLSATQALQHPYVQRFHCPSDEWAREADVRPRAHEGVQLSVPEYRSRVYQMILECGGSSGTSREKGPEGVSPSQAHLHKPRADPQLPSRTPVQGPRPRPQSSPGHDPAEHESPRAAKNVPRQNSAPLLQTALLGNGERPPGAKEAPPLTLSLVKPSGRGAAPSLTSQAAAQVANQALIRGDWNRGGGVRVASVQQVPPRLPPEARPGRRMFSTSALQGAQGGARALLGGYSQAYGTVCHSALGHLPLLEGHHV

MARK4 (human) = MARK4 (human) (UniProt Q96L34); conditions: compound 10.0 µM
MELK (human) = MELK (human) (UniProt Q14680); conditions: compound 10.0 µM
[5] = test system: MET (human), P08581 [M1250T]; conditions: compound 10.0 µM
MKNK2 (human) = MKNK2 (human) (UniProt Q9HBH9)
Sequence of MKNK2 (human) (Q9HBH9 whole entry, looked up): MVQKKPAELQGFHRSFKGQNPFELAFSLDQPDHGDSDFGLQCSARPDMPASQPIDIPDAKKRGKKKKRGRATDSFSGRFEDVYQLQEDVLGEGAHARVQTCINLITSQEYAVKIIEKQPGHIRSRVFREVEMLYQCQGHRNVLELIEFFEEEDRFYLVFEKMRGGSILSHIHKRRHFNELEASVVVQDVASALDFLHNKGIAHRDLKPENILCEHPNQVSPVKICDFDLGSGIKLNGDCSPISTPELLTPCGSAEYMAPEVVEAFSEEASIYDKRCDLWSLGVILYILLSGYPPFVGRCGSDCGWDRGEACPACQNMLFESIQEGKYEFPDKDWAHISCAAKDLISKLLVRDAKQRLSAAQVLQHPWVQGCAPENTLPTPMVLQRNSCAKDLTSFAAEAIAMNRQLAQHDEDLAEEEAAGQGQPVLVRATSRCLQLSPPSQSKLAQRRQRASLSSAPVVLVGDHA

MYO3A (human) = MYO3A (human) (UniProt Q8NEV4); conditions: compound 10.0 µM
PHKG2 (human) = PHKG2 (human) (UniProt P15735); conditions: compound 10.0 µM
Sequence of PHKG2 (human) (P15735 whole entry, looked up): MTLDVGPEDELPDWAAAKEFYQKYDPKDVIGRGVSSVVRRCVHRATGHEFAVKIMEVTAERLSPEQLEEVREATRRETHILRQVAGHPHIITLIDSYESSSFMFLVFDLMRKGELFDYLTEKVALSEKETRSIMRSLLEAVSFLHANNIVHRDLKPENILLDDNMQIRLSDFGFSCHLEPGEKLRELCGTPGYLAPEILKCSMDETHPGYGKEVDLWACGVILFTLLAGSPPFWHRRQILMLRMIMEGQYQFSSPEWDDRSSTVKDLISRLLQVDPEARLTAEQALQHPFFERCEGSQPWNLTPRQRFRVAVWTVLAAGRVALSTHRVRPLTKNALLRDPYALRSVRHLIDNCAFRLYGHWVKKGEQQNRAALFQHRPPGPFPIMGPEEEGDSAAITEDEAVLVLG

[6] = test system: PIK3CA (human), P42336 [H1047Y]; conditions: compound 10.0 µM
PIP4K2C (human) = PIP4K2C (human) (UniProt Q8TBX8); conditions: compound 10.0 µM
PRKACA (human) = PRKACA (human) (UniProt P17612); conditions: compound 10.0 µM
PRKD3 (human) = PRKD3 (human) (UniProt O94806); conditions: compound 10.0 µM
RPS6KA1 KD1 (human) = RPS6KA1 KD1 (human) (UniProt Q15418); conditions: compound 10.0 µM
SRPK2 (human) = SRPK2 (human) (UniProt P78362); conditions: compound 10.0 µM
SRPK3 (human) = SRPK3 (human) (UniProt Q9UPE1); conditions: compound 10.0 µM
Sequence of SRPK3 (human) (Q9UPE1 whole entry, looked up): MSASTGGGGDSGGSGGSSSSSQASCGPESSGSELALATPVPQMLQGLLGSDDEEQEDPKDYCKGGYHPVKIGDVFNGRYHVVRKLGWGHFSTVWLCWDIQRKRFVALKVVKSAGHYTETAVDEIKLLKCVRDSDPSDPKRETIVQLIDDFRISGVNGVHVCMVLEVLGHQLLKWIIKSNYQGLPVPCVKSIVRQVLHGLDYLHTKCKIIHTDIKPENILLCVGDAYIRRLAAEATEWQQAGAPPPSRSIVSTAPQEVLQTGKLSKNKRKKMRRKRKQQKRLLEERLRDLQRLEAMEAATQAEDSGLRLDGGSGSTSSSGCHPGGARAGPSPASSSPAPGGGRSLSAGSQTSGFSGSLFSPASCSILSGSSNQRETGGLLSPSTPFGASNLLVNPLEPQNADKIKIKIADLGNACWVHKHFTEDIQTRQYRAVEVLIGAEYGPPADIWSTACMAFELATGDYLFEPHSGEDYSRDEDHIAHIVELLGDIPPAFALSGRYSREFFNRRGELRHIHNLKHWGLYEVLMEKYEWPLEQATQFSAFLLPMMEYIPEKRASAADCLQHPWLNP

STK33 (human) = STK33 (human) (UniProt Q9BYT3); conditions: compound 10.0 µM
STK38L (human) = STK38L (human) (UniProt Q9Y2H1); conditions: compound 10.0 µM

Sequence of BLK (human) (P51451 whole entry, looked up): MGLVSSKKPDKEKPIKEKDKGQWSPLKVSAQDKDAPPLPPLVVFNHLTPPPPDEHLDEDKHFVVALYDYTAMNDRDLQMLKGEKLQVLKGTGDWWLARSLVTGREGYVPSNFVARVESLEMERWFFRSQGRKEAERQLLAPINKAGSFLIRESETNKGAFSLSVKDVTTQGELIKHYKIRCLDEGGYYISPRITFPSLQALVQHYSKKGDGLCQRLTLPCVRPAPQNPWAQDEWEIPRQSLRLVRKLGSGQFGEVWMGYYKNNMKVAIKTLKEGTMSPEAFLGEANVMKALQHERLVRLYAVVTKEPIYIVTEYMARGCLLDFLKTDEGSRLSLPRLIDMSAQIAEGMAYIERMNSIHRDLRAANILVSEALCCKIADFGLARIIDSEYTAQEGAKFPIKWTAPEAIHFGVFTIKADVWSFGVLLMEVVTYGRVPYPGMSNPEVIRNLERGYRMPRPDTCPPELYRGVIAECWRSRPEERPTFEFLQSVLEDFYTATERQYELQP
Sequence of AKT2 (human) (P31751 whole entry, looked up): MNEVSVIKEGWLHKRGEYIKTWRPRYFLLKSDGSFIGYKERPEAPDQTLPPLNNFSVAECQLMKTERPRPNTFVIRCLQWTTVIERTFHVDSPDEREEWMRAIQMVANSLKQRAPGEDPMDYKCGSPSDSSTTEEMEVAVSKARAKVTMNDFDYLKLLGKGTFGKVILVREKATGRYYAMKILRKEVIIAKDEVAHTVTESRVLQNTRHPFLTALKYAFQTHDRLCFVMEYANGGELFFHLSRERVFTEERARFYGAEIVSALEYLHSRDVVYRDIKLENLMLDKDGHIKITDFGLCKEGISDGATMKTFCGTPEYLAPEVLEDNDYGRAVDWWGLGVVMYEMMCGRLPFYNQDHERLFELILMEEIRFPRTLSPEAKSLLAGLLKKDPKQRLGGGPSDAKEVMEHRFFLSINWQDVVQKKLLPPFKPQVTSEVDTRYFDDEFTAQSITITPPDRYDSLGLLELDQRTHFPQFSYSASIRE
Sequence of BMPR1B (human) (O00238 whole entry, looked up): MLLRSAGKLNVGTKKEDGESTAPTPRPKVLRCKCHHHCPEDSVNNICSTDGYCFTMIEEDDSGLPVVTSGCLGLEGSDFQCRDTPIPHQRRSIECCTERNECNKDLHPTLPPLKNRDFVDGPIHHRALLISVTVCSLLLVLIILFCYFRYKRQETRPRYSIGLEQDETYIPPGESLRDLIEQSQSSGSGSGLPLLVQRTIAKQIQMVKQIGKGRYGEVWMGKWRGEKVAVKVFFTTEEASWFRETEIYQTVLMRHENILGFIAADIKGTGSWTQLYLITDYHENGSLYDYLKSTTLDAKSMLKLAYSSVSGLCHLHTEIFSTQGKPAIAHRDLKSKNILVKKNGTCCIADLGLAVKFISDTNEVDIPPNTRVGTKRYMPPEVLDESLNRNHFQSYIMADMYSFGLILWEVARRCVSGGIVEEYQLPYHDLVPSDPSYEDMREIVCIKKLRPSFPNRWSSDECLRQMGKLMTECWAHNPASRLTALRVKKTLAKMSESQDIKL

With COc1cc(C(=O)N2CCC(N3CCN(C)CC3)CC2)ccc1Nc1ncc2c(n1)N(C)c1ccccc1C(=O)N2C the kinase still bound, per cent of control (AKT2 (human)) was 100%, the kinase still bound, per cent of control (AURKB (human)) was 38% and the kinase still bound, per cent of control (BLK (human)) was 97%. It also gave a kinase still bound, per cent of control (BMPR1B (human)) of 76%, a kinase still bound, per cent of control (BMX (human)) of 87% and a kinase still bound, per cent of control (CDC42BPA (human)) of 100%. It also gave a residual activity (CDK9 (human)) of 100%, a kinase still bound, per cent of control (CSNK1A1L (human)) of 100% and a residual activity (CSNK1D (human)) of 81%. For the same molecule, the kinase still bound, per cent of control (CSNK1E (human)) was 95%, the kinase still bound, per cent of control (DMPK (human)) was 100% and the kinase still bound, per cent of control (EGFR (human)) was 84%. For the same molecule, the kinase still bound, per cent of control [1] was 86%, the kinase still bound, per cent of control (EPHA1 (human)) was 100% and the kinase still bound, per cent of control (EPHA4 (human)) was 89%. The kinase still bound, per cent of control (EPHB3 (human)) was 100%, the kinase still bound, per cent of control [2] was 100% and the kinase still bound, per cent of control (IRAK3 (human)) was 100%. For the same molecule, the kinase still bound, per cent of control [3] was 92%, the kinase still bound, per cent of control [4] was 72% and the kinase still bound, per cent of control (MAK (human)) was 72%. The kinase still bound, per cent of control (MAP2K3 (human)) was 75%, the kinase still bound, per cent of control (MAP2K4 (human)) was 100% and the kinase still bound, per cent of control (MAP2K5 (human)) was 85%. The kinase still bound, per cent of control (MAP3K2 (human)) was 97%, the kinase still bound, per cent of control (MAPK15 (human)) was 100% and the kinase still bound, per cent of control (MARK4 (human)) was 78%. For the same molecule, the kinase still bound, per cent of control (MELK (human)) was 100%, the kinase still bound, per cent of control [5] was 96% and the Kd (MKNK2 (human)) was 380 nM. The kinase still bound, per cent of control (MKNK2 (human); compound 10.0 µM) was 1.2%, the kinase still bound, per cent of control (MYO3A (human)) was 94% and the kinase still bound, per cent of control (PHKG2 (human)) was 33%. The kinase still bound, per cent of control [6] was 71%, the kinase still bound, per cent of control (PIP4K2C (human)) was 40% and the residual activity (PRKACA (human)) was 100%. The kinase still bound, per cent of control (PRKD3 (human)) was 42%, the kinase still bound, per cent of control (RPS6KA1 KD1 (human)) was 73% and the kinase still bound, per cent of control (SRPK2 (human)) was 100%. For the same molecule, the kinase still bound, per cent of control (SRPK3 (human)) was 72%, the kinase still bound, per cent of control (STK33 (human)) was 10% and the kinase still bound, per cent of control (STK38L (human)) was 100%.
